Paper PMC3545969, “Mutagenicity and antimutagenicity of (−)-hinokinin a trypanosomicidal compound measured by Salmonella microsome and comet assays” (BMC Complementary and Alternative Medicine, 2012)
Read-outs that look alike come from different tables or passages of the source. Marks after values point to notes of the source that are not given here.

How the values were obtained:
[1] = system: V79 cells; assay: Comet assay, antigenotoxicity against DXR in V79 cells; assay type: cell-based, Chinese hamster; set-up: Class 0 / Class 1 / Class 2 / Class 3: unit not given here; settings: 3 h
Description: Chinese hamster lung fibroblasts (V79) were kindly supplied by Professor Cólus (Universidade Estadual de Londrina (UEL), Paraná, Brazil). Cells were maintained as monolayers in plastic culture flasks (25 cm^2) in HAM-F10 (Sigma-Aldrich) plus DMEM (Sigma-Aldrich, 1:1) culture medium supplemented with 10%; fetal bovine serum (Nutricell), antibiotics (0.01 mg mL^−1 streptomycin and 0.005 mg mL^−1 penicillin; Sigma-Aldrich) and 2.38 mg mL^−1 Hepes (Sigma-Aldrich), at 37°C in a BOD-type chamber. Under these conditions, the average cell cycle time was 12 h.
HK was first dissolved in a mixture of methanol (100 μL) and distilled water (900 μL). The final concentration of methanol in the culture was 0.1%;. The choice of concentrations was based on the results of previous experiments with HK [12]. In the experiments, 3 × 10^5 cells (V79) were seeded into tissue-culture flasks, incubated for two cycles (24 h) in complete HAM-F10/DMEM medium, washed with phosphate buffer saline (PBS), and then subjected to one of the following treatments, in serum-free medium, for 3 h. To assess genotoxicity, the cells were treated with each concentration of HK alone, while for antigenotoxicity, they were treated with the mutagen DXR (0.3 μM) in combination with each HK concentration. Positive (DXR) and negative controls were also included in the test. At the end of the treatment, the cells were washed with ice-cold PBS and trypsinized with 200 μL trypsin. After 3 min, the cells were gently resuspended in complete medium and 20 μL of the cell suspension was immediately used for the test.
The procedures described by Singh et al. were adopted, with minor modifications, as described in detail by Speit and Hartmann and reviewed by Burlinson et al.. Briefly, a microscope slide was covered with a base layer of 1.5%; normal-melting agarose (Invitrogen) and 20 μL of the test cells suspended in 120 μL 0.5%; low-melting agarose (Invitrogen) at 37°C was then spread over the base layer. A coverslip was added and the agarose allowed to solidify at 4°C for 15 min. Next, the coverslip was gently removed and the slides were immersed in freshly prepared lysing solution consisting of 89 mL stock solution (2.5 M NaCl, 100 mM EDTA, 10 mM Tris, pH 10.0, and 1%; sodium lauryl sarcosine), 10 mL DMSO and 1 mL Triton X-100, pH 10.0, at 4°C, for at least 20 h, protected from light. At the end of this period, the slides were transferred to an electrophoresis chamber containing a high pH (>13.0) buffer (300 mM NaOH, 1 mM EDTA) and incubated at 4°C for 20 min to allow the DNA to unwind. A current of 25 V (1.0 V cm^−1, 300 mA) was applied for 20 min. The slides were then submerged in a neutralization buffer (0.4 M Tris - HCl, pH 7.5) for 15 min, dried at room temperature and fixed in 100%; ethanol for 10 min.
The slides were stained with 100 μL ethidium bromide (20 μg ml^−1) and covered with a coverslip. All the slides in the experiment were coded before analysis. The stained nucleoids were immediately evaluated at 1000x magnification under a Nikon fluorescence microscope fitted with a 515–560 nm excitation filter and a 590 nm barrier filter.
For each treatment, the extent and distribution of DNA damage indicated by the comet assay were evaluated by examining 100 randomly selected and non-overlapping cells on the slides (i.e. 300 nucleoids per treatment). For each slide, the cells were visually scored and allocated to one of four classes (0, 1, 2 and 3), according to tail size, as follows: class 0, undamaged, no tail; class 1, a short tail whose length was smaller than the diameter of the comet head (nucleus); class 2, tail length between 1 and 2 times the diameter of the head; and class 3, maximally damaged: a long tail measuring more than twice the diameter of the head. The few comets containing no head and those with almost all DNA in the tail, or with a very wide tail, were excluded from the analysis since they may arise from dead cells. […]

[2] = system: Salmonella typhimurium TA100
[3] = system: Salmonella typhimurium TA98
[4] = TA 100, + S9, HK 19.5 μg/plate + AFB1 0.5 μg/plate
[5] = TA 100, + S9, HK 39.0 μg/plate + AFB1 0.5 μg/plate
[6] = TA 100, + S9, HK 58.5 μg/plate + AFB1 0.5 μg/plate
[7] = TA 100, + S9, HK 78.0 μg/plate + AFB1 0.5 μg/plate
[8] = TA 100, + S9, HK […] + AFB1 0.5 μg/plate
[9] = TA 100, − S9, HK 19.5 μg/plate + SA 1.25 μg/plate
[10] = TA 100, − S9, HK 39.0 μg/plate + SA 1.25 μg/plate
[11] = TA 100, − S9, HK 58.5 μg/plate + SA 1.25 μg/plate
[12] = TA 100, − S9, HK 78.0 μg/plate + SA 1.25 μg/plate
[13] = TA 100, − S9, HK […] + SA 1.25 μg/plate
[14] = TA 98, − S9, HK 19.5 μg/plate + NOPD 10.0 μg/plate
[15] = TA 98, − S9, HK 39.0 μg/plate + NOPD 10.0 μg/plate
[16] = TA 98, − S9, HK 58.5 μg/plate + NOPD 10.0 μg/plate
[17] = TA 98, − S9, HK 78.0 μg/plate + NOPD 10.0 μg/plate
[18] = TA 98, − S9, HK […] + NOPD 10.0 μg/plate

O=C1OC[C@H](Cc2ccc3c(c2)OCO3)[C@H]1Cc1ccc2c(c1)OCO2 [HK, (−)-hinokinin]
Class 0 ([1]; HK 0.5 μM + DXR 0.3 μM): 73.0 ± 7.0
Class 1 ([1]; HK 0.5 μM + DXR 0.3 μM): 20.0 ± 7.5
Class 2 ([1]; HK 0.5 μM + DXR 0.3 μM): 4.6 ± 1.5
Class 3 ([1]; HK 0.5 μM + DXR 0.3 μM): 2.0 ± 2.0
Reduction % (of DXR-induced DNA damage) ([1]; HK 0.5 μM + DXR 0.3 μM): 76.0%
Score ([1]; HK 0.5 μM + DXR 0.3 μM): 36.0 ± 6.1^a,b
Class 0 ([1]; HK 1.0 μM + DXR 0.3 μM): 68.0 ± 2.0
Class 1 ([1]; HK 1.0 μM + DXR 0.3 μM): 20.6 ± 2.5
Class 2 ([1]; HK 1.0 μM + DXR 0.3 μM): 8.0 ± 2.0
Class 3 ([1]; HK 1.0 μM + DXR 0.3 μM): 3.3 ± 0.5
Reduction % (of DXR-induced DNA damage) ([1]; HK 1.0 μM + DXR 0.3 μM): 60.8%
Score ([1]; HK 1.0 μM + DXR 0.3 μM): 46.0 ± 3.0^a,b
Class 0 ([1]; HK 2.0 μM + DXR 0.3 μM): 65.0 ± 6.8
Class 1 ([1]; HK 2.0 μM + DXR 0.3 μM): 27.0 ± 6.6
Class 2 ([1]; HK 2.0 μM + DXR 0.3 μM): 4.3 ± 2.3
Class 3 ([1]; HK 2.0 μM + DXR 0.3 μM): 2.6 ± 1.6
Reduction % (of DXR-induced DNA damage) ([1]; HK 2.0 μM + DXR 0.3 μM): 63.4%
Score ([1]; HK 2.0 μM + DXR 0.3 μM): 44.3 ± 9.2^a,b
Class 0 ([1]; HK 32 μM + DXR 0.3 μM): 35.0 ± 5.0
Class 1 ([1]; HK 32 μM + DXR 0.3 μM): 33.0 ± 3.0
Class 2 ([1]; HK 32 μM + DXR 0.3 μM): 30.0 ± 4.1^b
Class 3 ([1]; HK 32 μM + DXR 0.3 μM): 1.0 ± 1.0
Score ([1]; HK 32 μM + DXR 0.3 μM): 97.0 ± 10.0^a
Class 0 ([1]; HK 64 μM + DXR 0.3 μM): 32.0 ± 6.1
Class 1 ([1]; HK 64 μM + DXR 0.3 μM): 39.0 ± 3.7
Class 2 ([1]; HK 64 μM + DXR 0.3 μM): 26.0 ± 2.0
Class 3 ([1]; HK 64 μM + DXR 0.3 μM): 2.0 ± 2.0
Score ([1]; HK 64 μM + DXR 0.3 μM): 97.0 ± 10.0^a
Class 0 ([1]; HK […] + DXR 0.3 μM): 28.0 ± 6.6
Class 1 ([1]; HK […] + DXR 0.3 μM): 40.0 ± 1.0
Class 2 ([1]; HK […] + DXR 0.3 μM): 29.0 ± 5.2^b
Class 3 ([1]; HK […] + DXR 0.3 μM): 3.0 ± 2.5
Score ([1]; HK […] + DXR 0.3 μM): 106.0 ± 16.0^a
% inhibition [2, 4]: 45*** %
Number of revertants(M ± SD)/ plate [2, 4]: 976 + 18 revertants/plate
% inhibition [2, 5]: 47*** %
Number of revertants(M ± SD)/ plate [2, 5]: 943 + 11 revertants/plate
% inhibition [2, 6]: 71*** %
Number of revertants(M ± SD)/ plate [2, 6]: 612 + 33 revertants/plate
% inhibition [2, 7]: 89*** %
Number of revertants(M ± SD)/ plate [2, 7]: 354 + 22 revertants/plate
% inhibition [2, 8]: 30** %
Number of revertants(M ± SD)/ plate [2, 8]: 1183 + 30 revertants/plate
effect on mutation induced by AFB1 ([2]; TA100, +S9): did inhibit mutation induced by the alkylating agent AFB1
effect on mutagenesis induced by SA ([2]; TA100, absence of metabolic activation): did not reduce mutagenesis
% inhibition [2, 9]: 9* %
Number of revertants(M ± SD)/ plate [2, 9]: 1112 + 34 revertants/plate
% inhibition [2, 10]: 5* %
Number of revertants(M ± SD)/ plate [2, 10]: 1169 + 32 revertants/plate
% inhibition [2, 11]: 7* %
Number of revertants(M ± SD)/ plate [2, 11]: 1145 + 16 revertants/plate
% inhibition [2, 12]: 3* %
Number of revertants(M ± SD)/ plate [2, 12]: 1181 + 41 revertants/plate
% inhibition [2, 13]: 7* %
Number of revertants(M ± SD)/ plate [2, 13]: 1139 + 20 revertants/plate
% inhibition ([3]; TA 98, + S9, HK 19.5 μg/plate + B[a]P 1.0 μg/plate): 32** %
% inhibition ([3]; TA 98, + S9, HK 39.0 μg/plate + B[a]P 1.0 μg/plate): 36** %
% inhibition ([3]; TA 98, + S9, HK 58.5 μg/plate + B[a]P 1.0 μg/plate): 52*** %
% inhibition ([3]; TA 98, + S9, HK 78.0 μg/plate + B[a]P 1.0 μg/plate): 59*** %
% inhibition ([3]; TA 98, + S9, HK […] + B[a]P 1.0 μg/plate): 31** %
% inhibition [3, 14]: 21* %
Number of revertants(M ± SD)/ plate [3, 14]: 507 + 15 revertants/plate
% inhibition [3, 15]: 26** %
Number of revertants(M ± SD)/ plate [3, 15]: 477 + 5 revertants/plate
% inhibition [3, 16]: 19* %
Number of revertants(M ± SD)/ plate [3, 16]: 521 + 9 revertants/plate
% inhibition [3, 17]: 25** %
Number of revertants(M ± SD)/ plate [3, 17]: 480 + 16 revertants/plate
% inhibition [3, 18]: 18* %
Number of revertants(M ± SD)/ plate [3, 18]: 525 + 7 revertants/plate
